Data reported in patent US20260284208A1, “SYSTEM” (Oxford University Innovation Limited, priority 2023, published 2026).

System: library of 8,380 IKZF3 degrons (ZF-eGFP/mCherry reporter) in Jurkat cells
Assay: Pooled library screen (FACS, NGS, limma voom LogFC of positive vs negative read counts)
Type: cell-based, human
Method: A library of 8,380 IKZF3 degrons was cloned into pLVX-Sprout to create the eGFP/mCherry protein degradation reporter plasmid pool. A lentivirus pool was then generated using the Lenti-X lentiviral vector production method.
Jurkat cells were transduced at a multiplicity of infection of <0.3 with the lentivirus vector library in order to maximise the number of cells with a single integration. Transductions were carried out in 6 well TC-treated cell culture dishes (Falcon) with 3×10^6 cells per well. Cells were incubated for 2 days at 37° C. and 5% CO2 before the supernatant was removed and replaced with fresh media. 6 days post-transduction, mCherry+ cells were isolated via FACS using the FACS Aria Fusion (BD) in a buffer containing PBS (Gibco), 2 mM EDTA (Gibco), 25 mM HEPES (Sigma) and 1% BSA (Sigma). 8 days later, cells were treated with DMSO or a thalidomide analog for 18 hours at 37° C. and 5% CO2. mCherry+GFPlow and NOT(mCherry+GFPlow) cells were sorted by FACS using the FACS Aria Fusion (BD). DMSO treated cells were used to set the mCherry+GFPlow gate and dead cells were excluded from sorting by staining cells with 1 μg/mL DAPI (ThermoFisher). gDNA was isolated using the Maxwell RSC 48 (Promega). gDNA from cells that were unsorted and untreated were also isolated to determine the library representation on the day of compound treatment. Throughout the screen >600× coverage of the library was maintained. 3 biological replicates were carried out with a new transduction taking place each time.
A two-step PCR was used where the first PCR (PCR1) amplified the integrated degron sequence from gDNA and the second PCR (PCR2) added Illumina adaptors and barcodes to permit multiplexing. See Supp F for PCR1 and PCR2 primers. Q5 Hot Start High-Fidelity 2× Master Mix (New England Biolabs) was used for both PCRs. Sufficient gDNA was amplified in PCR1 in order to maintain >600× coverage and amplicons were purified using solid phase reversible immobilization (SPRI) beads (Beckman Coulter). Purified PCR1 products were analysed on the Tapestation 4200 (Agilent) to confirm purity prior to proceeding to PCR2. Sufficient PCR1 product was amplified in PCR2 in order to maintain >600× coverage and amplicons were run on a 2% agarose TAE gel. Target bands were excised and purified using the NucleoSpin Gel and PCR Clean-up Kit (Machery Nagel). Amplicons were analysed on the Tapestation 4200 and quantified using Qubit dsDNA HS kit (ThermoFisher). PCR products were pooled and sequenced as paired-reads on the NovaSeq (Illumina) using a SP2 200 cycles kit (Illumina).
Count distributions, percentage of read mapping, library coverage and replicate correlation per sample were assessed for QC purposes.
To carry out the library screen, we used the same plasmid construct as in our earlier flow cytometry assays, but pooling all 8,380 mutants together into one Jurkat population, ensuring a copy number of one plasmid per cell (FIG. 4B). […] These GFP-negative cells were then separated from the remaining GFP-positive population using fluorescence activated cell sorting (FACS). These two populations were then sequenced and the relative abundance of every mutant in both populations compared to provide a log FC value for each mutant sequence. This value indicated how frequently a sequence is observed in the GFP-negative population relative to the GFP-positive population, and therefore how effective a degron it is for that particular IMID compound.

O=C1CCC(N2C(=O)c3ccccc3C2=O)C(=O)N1 (centres unmarked) [A32, 2-(2,6-dioxopiperidin-3-yl)isoindoline-1,3-dione]
A32_logFC (Degron-ID 3102, SEQ ID NO 98, 46F_47Q_49P_50V_52G_53A_54D_55F_67L): 3.4 | A32_logFC (Degron-ID 3105, SEQ ID NO 103, 46F_47Q_49P_50V_52G_53A_54G_55F_67L): 3.381 | A32_logFC (Degron-ID 3106, SEQ ID NO 132, 46F_47Q_49P_50V_52G_53A_54H_55F_67L): 3.266 | A32_logFC (Degron-ID 3107, SEQ ID NO 70, 46F_47Q_49P_50V_52G_53A_54I_55F_67L): 3.527 | A32_logFC (Degron-ID 3108, SEQ ID NO 4, 46F_47Q_49P_50V_52G_53A_54K_55F_67L): 3.962 | A32_logFC (Degron-ID 3109, SEQ ID NO 75, 46F_47Q_49P_50V_52G_53A_54L_55F_67L): 3.497 | A32_logFC (Degron-ID 3110, SEQ ID NO 49, 46F_47Q_49P_50V_52G_53A_54M_55F_67L): 3.582 | A32_logFC (Degron-ID 3111, SEQ ID NO 78, 46F_47Q_49P_50V_52G_53A_54N_55F_67L): 3.484 | A32_logFC (Degron-ID 3112, SEQ ID NO 5, 46F_47Q_49P_50V_52G_53A_54P_55F_67L): 3.872 | A32_logFC (Degron-ID 3116, SEQ ID NO 9, 46F_47Q_49P_50V_52G_53A_54T_55F_67L): 3.794 | A32_logFC (Degron-ID 3132, SEQ ID NO 73, 46F_47R_49D_50I_52G_53A_54P_55F_67L): 3.521 | A32_logFC (Degron-ID 3192, SEQ ID NO 53, 46F_47R_49E_50I_52G_53A_54P_55F_67L): 3.575 | A32_logFC (Degron-ID 3252, SEQ ID NO 104, 46F_47R_49N_50I_52G_53A_54P_55F_67L): 3.38 | A32_logFC (Degron-ID 3312, SEQ ID NO 69, 46F_47R_49P_50I_52G_53A_54P_55F_67L): 3.528 | A32_logFC (Degron-ID 3352, SEQ ID NO 74, 46F_47R_49P_50V_52G_53A_54P_55F_67L): 3.513 | A32_logFC (Degron-ID 3714, SEQ ID NO 136, 46F_47T_49E_50V_52G_53A_54R_55F_67L): 3.256 | A32_logFC (Degron-ID 3799, SEQ ID NO 121, 46F_47T_49P_50I_52G_53A_54Y_55F_67L): 3.31 | A32_logFC (Degron-ID 3821, SEQ ID NO 117, 46F_47T_49P_50V_52G_53A_54C_55F_67L): 3.33 | A32_logFC (Degron-ID 3940, SEQ ID NO 110, 46F_47V_49E_50V_52G_53A_54A_55F_67L): 3.355 | A32_logFC (Degron-ID 3954, SEQ ID NO 139, 46F_47V_49E_50V_52G_53A_54R_55F_67L): 3.254 | A32_logFC (Degron-ID 3955, SEQ ID NO 63, 46F_47V_49E_50V_52G_53A_54S_55F_67L): 3.54 | A32_logFC (Degron-ID 3972, SEQ ID NO 115, 46F_47V_49N_50I_52G_53A_54P_55F_67L): 3.332 | A32_logFC (Degron-ID 4032, SEQ ID NO 77, 46F_47V_49P_50I_52G_53A_54P_55F_67L): 3.493 | A32_logFC (Degron-ID 6496, SEQ ID NO 102, 46L_47C_49P_50I_52G_53F_54T_55C_67L): 3.382 | A32_logFC (Degron-ID 6528, SEQ ID NO 135, 46L_47E_49P_50I_52G_53F_54K_55C_67L): 3.258 | A32_logFC (Degron-ID 6536, SEQ ID NO 101, 46L_47E_49P_50I_52G_53F_54T_55C_67L): 3.382 | A32_logFC (Degron-ID 6539, SEQ ID NO 113, 46L_47E_49P_50I_52G_53F_54Y_55C_67L): 3.343 | A32_logFC (Degron-ID 6700, SEQ ID NO 60, 46L_47Q_49P_50I_52G_53F_54A_55C_67L): 3.551 | A32_logFC (Degron-ID 6703, SEQ ID NO 88, 46L_47Q_49P_50I_52G_53F_54E_55C_67L): 3.442 | A32_logFC (Degron-ID 6706, SEQ ID NO 122, 46L_47Q_49P_50I_52G_53F_54H_55C_67L): 3.305 | A32_logFC (Degron-ID 6707, SEQ ID NO 85, 46L_47Q_49P_50I_52G_53F_54I_55C_67L): 3.453 | A32_logFC (Degron-ID 6708, SEQ ID NO 96, 46L_47Q_49P_50I_52G_53F_54K_55C_67L): 3.401 | A32_logFC (Degron-ID 6710, SEQ ID NO 59, 46L_47Q_49P_50I_52G_53F_54M_55C_67L): 3.553 | A32_logFC (Degron-ID 6713, SEQ ID NO 86, 46L_47Q_49P_50I_52G_53F_54Q_55C_67L): 3.449 | A32_logFC (Degron-ID 6714, SEQ ID NO 111, 46L_47Q_49P_50I_52G_53F_54R_55C_67L): 3.346 | A32_logFC (Degron-ID 6715, SEQ ID NO 66, 46L_47Q_49P_50I_52G_53F_54S_55C_67L): 3.532 | A32_logFC (Degron-ID 6719, SEQ ID NO 81, 46L_47Q_49P_50I_52G_53F_54Y_55C_67L): 3.469 | A32_logFC (Degron-ID 6732, SEQ ID NO 89, 46L_47R_49P_50I_52G_53F_54P_55C_67L): 3.438 | A32_logFC (Degron-ID 6775, SEQ ID NO 76, 46L_47T_49P_50I_52G_53F_54S_55C_67L): 3.495 | A32_logFC (Degron-ID 6776, SEQ ID NO 87, 46L_47T_49P_50I_52G_53F_54T_55C_67L): 3.444 | A32_logFC (Degron-ID 6780, SEQ ID NO 57, 46L_47V_49P_50I_52G_53F_54A_55C_67L): 3.558 | A32_logFC (Degron-ID 6795, SEQ ID NO 48, 46L_47V_49P_50I_52G_53F_54S_55C_67L): 3.587 | A32_logFC (Degron-ID 7840, SEQ ID NO 95, 46L_47Q_49E_50I_52G_53F_54A_55C_67L): 3.402 | A32_logFC (Degron-ID 7848, SEQ ID NO 131, 46L_47Q_49E_50I_52G_53F_54K_55C_67L): 3.267 | A32_logFC (Degron-ID 7853, SEQ ID NO 124, 46L_47Q_49E_50I_52G_53F_54Q_55C_67L): 3.298 | A32_logFC (Degron-ID 7854, SEQ ID NO 52, 46L_47Q_49E_50I_52G_53F_54R_55C_67L): 3.575 | A32_logFC (Degron-ID 7855, SEQ ID NO 51, 46L_47Q_49E_50I_52G_53F_54S_55C_67L): 3.576 | A32_logFC (Degron-ID 7857, SEQ ID NO 99, 46L_47Q_49E_50I_52G_53F_54V_55C_67L): 3.397 | A32_logFC (Degron-ID 7934, SEQ ID NO 128, 46L_47V_49E_50I_52G_53F_54R_55C_67L): 3.277 | A32_logFC (Degron-ID 7935, SEQ ID NO 118, 46L_47V_49E_50I_52G_53F_54S_55C_67L): 3.326
